Assay in all cases: Cell growth inhibition, Sulforhodamine B assay (SRB)
What all share (assay type): cell-based
(In general: In SRB staining, fixed cells bind dye roughly in proportion to their protein.)

In assay [1] the test system is A549 lung cancer cell line. The note with it: Homo sapiens, read-out: Cell Line GI50 Range A-549. On the procedure: (§1) The cells were cultured for 5 days before the Sulforhodamine B assay (SRB) was performed to determine the compound's cell growth inhibition activity.
(§2) Sulforhodamine B (purchased from Sigma, Oakville, ON, Canada) is a water-soluble dye that binds to the basic amino acids of the cellular proteins. Thus, colorimetric measurement of the bound dye provides an estimate of the total protein mass that is related to the cell number. the cells are fixed in situ by gently aspirating off the culture media and adding 50 μl ice cold 10% Trichloroacetic Acid (TCA) per well and incubate at 4° C. for 30-60 min, The plates are washed with water five times and allowed to air dry for 5 min. […] Following staining, plates are washed four times with 1% acetic acid to remove unbound dye and then allowed to air dry for 5 min. […] Absorbance is read at 570 nm.
(§3) The percentage (%) of relative growth inhibition was calculated by comparing to DMSO treated only cells (100%). GI50's were determined for compounds with cytotoxic activity. The GI50 was calculated using GraphPad PRISM software (GraphPad Software, Inc., San Diego, Calif., USA).

Assay [2] has as its system MDA-MB-468 basal breast cancer cell line. Conditions: Homo sapiens, read-out: Cell Line GI50 Range MDA-MB-468. On the procedure:
as §1, §2, §3

For assay [3], the system named is MCF-7 luminal breast cancer cell line. The note with it: Homo sapiens, MCF7, 120 h, 5 days culture, SRB. How it is done: as §1, §2, §3
The subject of assay [4] is SW620 colon cancer cell line. The note with it: Homo sapiens, SW-620, 120 h, 5 days culture, SRB. On the procedure:
as §1, §2, §3

The test system of assay [5] is HCC1954 basal breast cancer cell line. Conditions: Homo sapiens, read-out: Cell Line GI50 Range HCC-1954. How it is done: as §1, §2, §3
Where [6] appears, read: 120 h, A549 lung cancer cell line, 5 days culture, SRB.
[7] abbreviates: 120 h, MDA-MB-468 basal breast cancer cell line, 5 days culture, SRB.
[8] abbreviates: MCF-7 luminal breast cancer cell line, read-out: Cell Line GI50 Range MCF-7.
[9] abbreviates: SW620 colon cancer cell line, read-out: Cell Line GI50 Range SW-620.
[10] abbreviates: 120 h, HCC1954 basal breast cancer cell line, 5 days culture, SRB.
Setting [11] is: HCC1954, 120 h, HCC1954 basal breast cancer cell line, 5 days culture, SRB.
The mark [12] stands for this setting: read-out: Cell Line GI50 Range SW-620, SW620 colon cancer cell line.
Where [13] appears, read: read-out: Cell Line GI50 Range MCF-7, MCF-7 luminal breast cancer cell line.

Counter-ions that a name gives are not always drawn. Like-named read-outs stand apart in the source and are kept apart here. Bounds are passed on as bounds.

Broadly, the GI50 is the concentration that inhibits growth by half.

Regarding `COc1ccc2c(c1)[C@@]1(C[C@@H]1c1ccc3c(-c4cccc(CO)c4)n[nH]c3c1)C(=O)N2` (racemic) [Example A43, (1R*,2S*)-2-(3-(3-(hydroxymethyl)phenyl)-1H-indazol-6-yl)-5′-methoxy spiro[cyclopropane-1,3′-indolin]-2′-one 2,2,2-trifluoroacetate], the concentration for 50% growth inhibition (GI50) in assay [1] (setting [6]) is 1000 to 10000 nM; in assay [2] (setting [7]), 1000 to 10000 nM; in assay [3] (setting [8]), 1000 to 10000 nM; in assay [4] (setting [9]), 1000 to 10000 nM; in assay [5] (setting [10]), more than 10000 nM.

Turning to `COc1ccc2c(c1)[C@@]1(C[C@@H]1c1ccc3c(/C=C/c4ccc(N5CCN(C)CC5)cc4)n[nH]c3c1)C(=O)N2` (racemic) [Example A174, (1R*,2S*)-(E)-5′-methoxy-2-(3-(4-(4-methylpiperazin-1-yl)styryl)-1H-indazol-6-yl)spiro[cyclopropane-1,3′-indolin]-2′-one 2,2,2-trifluoroacetate], the GI50 was less than 100 nM in assay [1] (setting [6]); less than 100 nM in assay [2] (setting [7]); less than 100 nM in assay [3] (setting [8]); less than 100 nM in assay [4] (setting [9]); 100 to 1000 nM in assay [5] (setting [10]).

For `COc1ccc2c(c1)[C@]1(C[C@H]1c1ccc3c(/C=C/c4ccc(CN5CCCCC5)nc4)n[nH]c3c1)C(=O)N2` (racemic) [Example A62, (1R,2S)-(E)-5′-methoxy-2-(3-((E)-2-(6-(piperidin-ylmethyl)pyridin-3-yl)vinyl)-1H-indazol-6-yl)spiro[cyclopropane-1,3′-indolin]-2′-one 2,2,2-trifluoroacetate salt], the GI50 in assay [5] (HCC1954, 120 h) fell in the range of 1000 to 10000 nM.

`COc1ccc2c(c1)[C@]1(CC1c1ccc3c(/C=C/c4ccc(CN5C[C@@H](C)O[C@@H](C)C5)cc4)n[nH]c3c1)C(=O)N2` (relative stereo) [Example A186, (1R*,2S*)-(E)-2-(3-(4-trans-2,6-dimethylmorpholino)methyl)styryl)-1H-indazol-6-yl)-5′-methoxspiro[cyclopropane-1,3′-indolin]-2′-one 2,2,2-trifluoroacetate]: in assay [5] (setting [10]), the GI50 is 1000 to 10000 nM.

As to `COc1ccc2c(c1)[C@@]1(C[C@@H]1c1ccc3c(-c4cccc(N5CCNCC5)c4)n[nH]c3c1)C(=O)N2` (racemic) [Example A47, (1R*,2S*)-5′-methoxy-2-(3-(3-(piperazin-1-yl)phenyl)-1H-indazol-6-yl)spiro[cyclopropane-1,3′-indolin]-2′-one 2,2,2-trifluoroacetate], the GI50 in assay [1] (setting [6]), in assay [2] (setting [7]), in assay [3] (setting [8]), in assay [4] (setting [9]) and in assay [5] (setting [11]) was 1000 to 10000 nM in each case.

For `CN1C(=O)[C@@]2(C[C@H]2c2ccc3c(/C=C/c4ccc(CN5CCOCC5)cc4)n[nH]c3c2)c2ccccc21` (racemic) [Example A87, (1R*,2S*)-(E)-1′-methyl-2-(3-(4-(morpholinomethyl)styryl)-1H-indazol-6-yl)spiro[cyclopropane-1,3′-indolin]-2′-one 2,2,2-trifluoroacetate], the concentration for 50% growth inhibition (GI50) in assay [1] (setting [6]) was less than 100 nM; in assay [2] (setting [7]), less than 100 nM; in assay [3] (setting [8]), less than 100 nM; in assay [4] (setting [9]) it was 100 to 1000 nM; in assay [5] (setting [11]) it was 1000 to 10000 nM.

With `COc1ccc2c(c1)[C@@]1(C[C@@H]1c1ccc3c(/C=C/c4ccc(CCN5CCOCC5)cc4)n[nH]c3c1)C(=O)N2` (racemic) [Example A178, (1R*,2S*)-(E)-5′-methoxy-2-(3-(4-(2-morpholinoethyl)styryl)-1H-indazol-6-yl)spiro[cyclopropane-1,3′-indolin]-2′-one 2,2,2-trifluoroacetate], the GI50 was less than 100 nM in assay [1] (setting [6]); less than 100 nM in assay [2] (setting [7]); less than 100 nM in assay [3] (setting [8]); less than 100 nM in assay [4] (setting [9]); 100 to 1000 nM in assay [5] (setting [11]).

`COc1ccc2c(c1)[C@@]1(C[C@@H]1c1ccc3c(-c4ccc(N5CCN(C)CC5)cc4)n[nH]c3c1)C(=O)N2C` (racemic) [Example A100, (1R*,2S*)-5′-methoxy-1′-methyl-2-(3-(4-(4-methylpiperazin-1-yl)phenyl)-1H-indazol-6-yl)spiro[cyclopropane-1,3′-indolin]-2′-one 2,2,2-trifluoroacetate]: the GI50 in assay [1] (setting [6]) was less than 100 nM; in assay [2] (setting [7]), 100 to 1000 nM; in assay [3] (setting [8]) it was 100 to 1000 nM; in assay [4] (setting [9]) it was less than 100 nM; in assay [5] (setting [10]), 1000 to 10000 nM.

For `CN(C)Cc1ccc(/C=C/c2n[nH]c3cc([C@@H]4C[C@@]45C(=O)Nc4ccccc45)ccc23)cc1` [Example A24, (1R,2S)-(E)-2-(3-(4-((dimethylamino)methyl)styryl)-1H-indazol-6-yl)spiro[cyclopropane-1,3′-indolin]-2′-one 2,2,2-trifluoroacetate], the GI50 in assay [4] (setting [12]) is less than 100 nM.

Regarding `O=C1Nc2ccccc2[C@]12C[C@H]2c1ccc2cn[nH]c2c1` (relative stereo) [Example A2, (1R*,2S*)-2-(1H-indazol-6-yl)spiro[cyclopropane-1,3′-indolin]-2′-one], the 50% growth inhibitory concentration (GI50) was more than 10000 nM in assay [1] (A549, 120 h); more than 10000 nM in assay [2] (MDA-MB-468, 120 h); more than 10000 nM in assay [3] (setting [13]); more than 10000 nM in assay [4] (setting [12]); more than 10000 nM in assay [5] (HCC1954, 120 h).

On to `COc1ccc2c(c1)[C@]1(C[C@H]1c1ccc3c(/C=C/c4cccc(CN(C)C)c4)n[nH]c3c1)C(=O)N2` (racemic) [Example A135, (1R*,2S*)-2-(3-(3-((dimethylamino)methyl)styryl)-1H-indazol-6-yl)-5′-methoxyspiro[cyclopropane-1,3′-indolin]-2′-one 2,2,2-trifluoroacetate], for which the 50% growth inhibitory concentration (GI50) in assay [4] (setting [9]) is 100 to 1000 nM; in assay [5] (setting [11]), more than 10000 nM.

Consider `COc1ccc2c(c1)[C@]1(C[C@H]1c1ccc3c(/C=C/c4cccc(CN5CCOCC5)c4)n[nH]c3c1)C(=O)N2` (racemic) [Example A133, (1R*,2S*)-5′-methoxy-2-(3-(3-(morpholinomethyl)styryl)-1H-indazol-6-yl)spiro[cyclopropane-1,3′-indolin]-2′-one 2,2,2-trifluoroacetate], for which the GI50 was less than 100 nM in assay [3] (setting [8]), 100 to 1000 nM in assay [4] (setting [9]) and more than 10000 nM in assay [5] (setting [10]).

For the compound `O=C1Nc2ccccc2[C@@]12C[C@@H]2c1ccc2c(/C=C/c3cccnc3)n[nH]c2c1` (racemic) [Example A28, (1R*,2S*)-2-(3-((E)-2-(pyridin-3-yl)vinyl)-1H-indazol-6-yl)spiro-[cyclopropane-1,3′-indolin]-2′-one], the concentration for 50% growth inhibition (GI50) in assay [1] (setting [6]), in assay [3] (setting [8]) and in assay [5] (setting [11]) was 1000 to 10000 nM in each case.

As for `CCN(CC)Cc1ccc(/C=C/c2n[nH]c3cc([C@@H]4C[C@@]45C(=O)Nc4ccccc45)ccc23)cc1` (relative stereo) [Example A211, (1R*,2S*)-(E)-2-(3-(4-((diethylamino)methyl)styryl)-1H-indazol-6-yl)spiro-[cyclopropane-1,3′-indolin]-2′-one 2,2,2-trifluoroacetate], the concentration for 50% growth inhibition (GI50) in assay [3] (setting [13]) and in assay [4] (setting [12]) was 100 to 1000 nM in each case.

Turning to `Cc1ccc2c(c1)[C@@]1(C[C@@H]1c1ccc3c(-c4ccc(N5CCN(C)CC5)cc4)n[nH]c3c1)C(=O)N2` (racemic) [Example A173, (1R*,2S*)-5′-methyl-2-(3-(4-(4-methylpiperazin-1-yl)phenyl)-1H-indazol-6-yl)spiro[cyclopropane-1,3′-indolin]-2′-one 2,2,2-trifluoroacetate], the concentration for 50% growth inhibition (GI50) in assay [1] (setting [6]), in assay [2] (setting [7]), in assay [3] (setting [8]), in assay [4] (setting [9]) and in assay [5] (setting [10]) was 100 to 1000 nM each time.

Consider `COc1ccc2c(c1)[C@@]1(C[C@@H]1c1ccc3c(-c4ccnc(N5CCN(C)CC5)c4)n[nH]c3c1)C(=O)N2` (racemic) [Example A37, (1R*,2S*)-5′-Methoxy-2-(3-(2-(4-methylpiperazin-1-yl)pyridin-4-yl)-1H-indazol-6-yl)spiro[cyclopropane-1,3′-indolin]-2′-one], for which the 50% growth inhibitory concentration (GI50) was less than 100 nM in assay [1] (setting [6]); 100 to 1000 nM in assay [2] (setting [7]); more than 10000 nM in assay [3] (setting [8]); less than 100 nM in assay [4] (setting [9]); more than 10000 nM in assay [5] (setting [10]).

Take `O=C1Nc2ccc(F)cc2[C@@]12C[C@@H]2c1ccc2c(/C=C/c3ccc(CN4CCOCC4)cc3)n[nH]c2c1` (racemic) [Example A219, (1R*,2S*)-(E)-5′-fluoro-2-(3-(4-(morpholinomethyl)styryl-1H-indazol-6-yl)spiro[cyclopropane-1,3′-indolin]-2′-one 2,2,2-trifluoroacetate]: the GI50 in assay [3] (setting [13]) was 100 to 1000 nM; in assay [5] (HCC1954, 120 h), 100 to 1000 nM.

The record behind these values is US8481525B2, “Kinase inhibitors and method of treating cancer with same” (University of Health Network, priority 2009, dated 2013).
